For five compounds, EC50 results are on record in EP2128158A1, “Heterocyclic cyclopropyl-substituted FXR binding compounds” (Phenex Pharmaceuticals AG, priority 2008, dated 2009).

Where two headings read alike, the source gives them in different places.

The target in assay [1] is T1, human FXR alpha ligand binding domain (Homo sapiens, UniProt Q96RI1).
T1 construct: made in house; host or cells: E. coli BL21(DE3), vector pDEST15
T1 sequence (Q96RI1 187-472 isoform Q96RI1-2): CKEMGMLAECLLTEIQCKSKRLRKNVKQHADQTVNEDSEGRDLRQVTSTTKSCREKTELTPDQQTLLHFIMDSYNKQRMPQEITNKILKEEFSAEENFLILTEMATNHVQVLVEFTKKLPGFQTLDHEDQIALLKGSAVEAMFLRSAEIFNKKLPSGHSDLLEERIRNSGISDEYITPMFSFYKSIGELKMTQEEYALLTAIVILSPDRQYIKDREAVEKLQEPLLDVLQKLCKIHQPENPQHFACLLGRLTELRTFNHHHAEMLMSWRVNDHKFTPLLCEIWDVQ
Put plainly: FRET activity assay (ligand mediated FXR-LBD / SRC-1 cofactor peptide interaction, LANCE). Format: biochemical. The protocol:
Determination of a ligand mediated cofactor peptide interaction to quantify ligand binding to the nuclear receptor FXR was performed as follows: Preparation of human FXR alpha ligand binding domain: The human FXRalpha LBD was expressed in E. coli strain BL21(DE3) as an N-terminally GST tagged fusion protein. The DNA encoding the FXR ligand binding domain was cloned into vector pDEST15 (Invitrogen). Expression was under control of an IPTG inducible T7 promoter. The amino acid boundaries of the ligand binding domain were amino acids 187-472 of Database entry NM_005123 (RefSeq). Expression and purification of the FXR-LBD:
An overnight preculture of a transformed E.coli strain was diluted 1:20 in LB-Ampicillin medium and grown at 30°C to an optical density of OD600=0.4-0.6. Gene expression was then induced by addition of 0.5 mM IPTG. Cells were incubated an additional 6h at 30°C, 180 rpm. Cells were collected by centrifugation (7000 x g, 7 min, room temperature). Per liter of original cell culture, cells were resuspended in 10 ml lysis buffer (50 mM Glucose, 50 mM Tris pH 7.9, 1 mM EDTA and 4 mg/ml lysozyme) and left on ice for 30 min. Cells were then subjected to sonication and cell debris removed via centrifugation (22000 x g, 30 min, 4°C). Per 10 ml of supernatant 0.5 ml prewashed Glutathione 4B sepharose slurry (Qiagen) was added and the suspension kept slowly rotating for 1 h at 4°C. Glutathione 4B sepharose beads were pelleted by centrifugation (2000 g, 15 sec, 4°C) and washed twice in wash buffer (25 mM Tris, 50mM KCl, 4 mM MgCl2 and 1M NaCl). The pellet was resuspended in 3 ml elution buffer per liter of original culture (elution buffer: 20 mM Tris, 60 mM KCI, 5 mM MgCl2 and 80 mM glutathione added immediately prior to use as powder). The suspension was left rotating for 15 min at 4°C, the beads pelleted and eluted again with half the volume of elution buffer than the first time. The eluates were pooled and dialysed overnight in 20 mM Hepes buffer (pH 7.5) containing 60 mM KCI, 5 mM MgCl2 as well as 1 mM dithiothreitol and 10% (v/v) glycerol. The protein was analysed by SDS-Page.
The method measures the ability of putative ligands to modulate the interaction between the purified bacterial expressed FXR ligand binding domain (LBD) and a synthetic biotinylated peptide based on residues 676-700 of SRC-1 (LCD2, 676-700). The sequence of the peptide used was B-[…]-COOH where the N-terminus was biotinylated (B). The ligand binding domain (LBD) of FXR was expressed as fusion protein with GST in BL-21 cells using the vector pDEST15. Cells were lysed by sonication, and the fusion proteins purified over glutathione sepharose (Pharmacia) according to the manufacturers instructions. […] For ease of handling and reduction of background from compound fluorescence LANCE technology makes use of generic fluorophore labels and time resolved detection Assays were done in a final volume of 2 5µl in a 384 well plate, in a Tris-based buffer (20 mM Tris-HCl pH 7,5; 60 mM KCI, 5 mM MgCl2; 35 ng/µl BSA), containing 20-60 ng/well recombinantly expressed FXR-LBD fused to GST, 200-600 nM N-terminally biotinylated peptide, representing SRC1 aminoacids 676-700, 200 ng/well Streptavidin-xIAPC conjugate(Prozyme) and 6-10 ng/well Eu W1024 - antiGST (Perkin Elmer). […] The LANCE signal was detected by a Perkin Elmer VICTOR2VTM Multilabel Counter The results were visualized by plotting the ratio between the emitted light at 665 nm and 615 nm. […]
On the technique in general: Time-resolved FRET reads energy transfer from a long-lived donor to a nearby acceptor.

The target of assay [2] is T2, FXR ligand binding domain (Homo sapiens, UniProt Q96RI1).
T2 construct: expressed in transfected cells; host or cells: HEK293 (DSMZ), transient transfection, vector pCMV-BD
T2 sequence (Q96RI1 187-472 isoform Q96RI1-2): T1 sequence (Q96RI1 187-472 isoform Q96RI1-2)
Nature of the assay: Mammalian one hybrid (M1H) assay, Gal4 promoter driven transactivation in HEK293 cells. The settings on record: Gal4-FXR LBD, 16 hours incubation, dual luciferase, read-out: M1H assay EC50 (±sd). Format: cell-based. The protocol:
Determination of a ligand mediated Gal4 promoter driven transactivation to quantify ligand binding mediated activation of FXR was performed as follows: The cDNA part encoding the FXR ligand binding domain was cloned into vector pCMV-BD (Stratagene) as a fusion to the yeast GAL4 DNA binding domain under the control of the CMV promoter. The amino acid boundaries of the ligand binding domain were amino acids 187-472 of Database entry NM_005123 (RefSeq). The plasmid pFR-Luc (Stratagene) was used as the reporter plasmid, containing a synthetic promoter with five tandem repeats of the yeast GAL4 binding sites, driving the expression of the Photinus pyralis (American firefly) luciferase gene as the reporter gene. In order to improve experimental accuracy the plasmid pRL-CMV (Promega) was cotransfected. pRL-CMV contains the constitutive CMV promoter, controlling the expression of the Renilla reniformis luciferase. All Gal4 reporter gene assays were done in HEK293 cells (obtained from DSMZ, Braunschweig, Germany) grown in MEM with L-Glutamine and Earle's BSS supplemented with 10% fetal bovine serum, 0.1 mM nonessential amino acids, 1mM sodium pyruvate, and 100units Penicilin/[…] per ml at 37°C in 5% CO2. Medium and supplements were obtained from Invitrogen. For the assay, 5x10^5 cells were plated per well in 96well plates in 100µl per well MEM without Phenol Red and L-Glutamine and with Earle's BSS supplemented with 10% charcoal/dextran treated FBS (HyClone, South Logan, Utah), 0.1 mM nonessential amino acids, 2 mM glutamine, 1 mM sodium pyruvate, and 100 units Penicilin/[…] per ml, incubated at 37 °C in 5% CO2. The following day the cells were >90% confluence. Medium was removed and cells were transiently transfected using 20µl per well of a OptiMEM - polyethylene-imine-based transfection-reagent (OptiMEM, Invitrogen; Polyethyleneimine, Aldrich Cat No. 40,827-7) including the three plasmids described above. MEM with the same composition as used for plating cells was added 2-4 hours after addition of transfection mixture. Then compound stocks, prediluted in MEM were added (final vehicle concentration not exceeding 0.1 %). Cells were incubated for additional 16 hours before firefly and renilla luciferase activities were measured sequentially in the same cell extract using a Dual-Light-Luciferase-Assay system (Dyer et al., Anal Biochem 2000, (282), 158-161). All experiments were done in triplicates.

The next assay deals with T3, full length human FXR (Homo sapiens, UniProt Q96RI1).
T3 construct: The full length human FXR (NM_005123) was cloned into pTRexDest30; expressed in transfected cells
T3 sequence (Q96RI1 1-472 isoform Q96RI1-2): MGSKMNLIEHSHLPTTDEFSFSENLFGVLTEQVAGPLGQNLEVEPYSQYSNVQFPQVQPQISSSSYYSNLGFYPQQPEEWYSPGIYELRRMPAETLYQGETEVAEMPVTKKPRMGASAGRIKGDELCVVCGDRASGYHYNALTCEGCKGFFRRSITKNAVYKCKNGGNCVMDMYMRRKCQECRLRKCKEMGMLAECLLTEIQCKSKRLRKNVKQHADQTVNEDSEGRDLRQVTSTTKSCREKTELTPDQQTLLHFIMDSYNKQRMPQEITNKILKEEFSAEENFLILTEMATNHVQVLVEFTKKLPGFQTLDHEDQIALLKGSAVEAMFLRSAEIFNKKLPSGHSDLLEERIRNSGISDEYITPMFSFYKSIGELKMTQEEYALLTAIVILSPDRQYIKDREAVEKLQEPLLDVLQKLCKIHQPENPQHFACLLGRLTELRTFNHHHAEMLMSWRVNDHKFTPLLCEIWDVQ
Nature of the assay: Direct reporter (DR) gene assay in stably transfected HEK293 cells (D2IV3), luciferase. It counts as cell-based. The source says:
In the direct reporter gene assay, HEK293 cells, obtained from DSMZ (German Collection of Microorganisms and Cell Cultures, Braunschweig, Germany) were stably transfected with pTRexDest30 (Invitrogen) derivative pTRexDest30-hFXR and pGL2promoter (Promega) derivative pGL2promoter-2xIBABP-RE. The full length human FXR (NM_005123) was cloned into pTRexDest30 according to the manufacturer protocol for the Gateway system (Invitrogen). The FXR response elements cccaGGGTGAaTAACCTcggggctctgtccctccaatcccaGGGTGAaTAACCTcggg were derived from the human IBABP-P promoter (Grober et al. 1999, JBC, 174, pp.29749-29754) and cloned into pGL2promoter. […] For the direct reporter gene assays, D2IV3 cells were grown in MEM with L-Glutamine and Earle's BSS supplemented with 10% fetal bovine serum, 0.1mM nonessential amino acids, 1mM sodium pyruvate, and 100units Penicilin/[…] per ml at 37°C in 5% CO2. Medium and supplements were obtained from Invitrogen. For the assay, 5x10^5 cells were plated per well in 96well plates in 100µl per well minimum essential medium (same composition as above) incubated at 37°C in 5% CO2. The following day the cells were >90% confluence. Compounds were prediluted in MEM and added at different concentrations to the cells with the final DMSO vehicle concentration not exceeding 0.1%. Cells were incubated for additional 16 hours before firefly luciferase activity was measured. All experiments were done in triplicates.

The mark [3] stands for this setting: GST-tagged FXR-LBD, biotinylated SRC-1 peptide 676-700; read-out: FRET assay EC50 (±sd).
[4] abbreviates: 16 hours incubation, firefly luciferase, read-out: DR assay EC50 (±sd).

The term EC50 denotes the concentration needed to bring the measured effect to its halfway point. On to `Cc1cc(CN(C)c2ccc(OCc3c(-c4c(Cl)cccc4Cl)noc3C3CC3)nc2C(F)(F)F)ccc1C(=O)O` [Example 2, 4-{[(6-((5-Cyclopropyl-3-(2,6-dichlorophenyl)isoxazol-4-yl)methoxy)-2-(trifluoromethyl)pyridin-3-yl)(methyl)amino]methyl}-2-methylbenzoic acid], for which the EC50 in assay [1] (setting [3]) was 7.7 nM; in assay [2] it was 40 nM; on full length human FXR (setting [4]), 6 nM.
With `Cc1cc(CN(C)c2ccc(OCc3c(-c4c(Cl)cccc4Cl)noc3C3CC3)nc2C(F)(F)F)cc(C)c1C(=O)O` [Example 3, 4-{[(6-((5-Cyclopropyl-3-(2,6-dichlorophenyl)isoxazol-4-yl)methoxy)-2-(trifluoromethyl)pyridin-3-yl)(methyl)amino]methyl}-2,6-dimethylbenzoic acid], the EC50 in assay [1] (setting [3]) stood at 11.5 nM; in assay [2] it was 55 nM; on full length human FXR (setting [4]), 6 nM.
The like results for `CC(C)c1onc(-c2c(Cl)cccc2Cl)c1COc1ccc(N(C)Cc2cccc(C(=O)O)c2)c(C(F)(F)F)n1` [Compound C, 3-(((6-((3-(2,6-Dichlorophenyl)-5-isopropylisoxazol-4-yl)methoxy)-2-(trifluoromethyl)pyridin-3-yl)(methyl)amino)methyl)benzoic acid, reference compound] were, in that order, 11 nM, 186 nM and 5.7 nM.
In the case of `CN(Cc1ccc(C(=O)O)cc1)c1ccc(OCc2c(-c3c(Cl)cccc3Cl)noc2C2CC2)nc1C(F)(F)F` [Example 1, 4-{[(6-((5-Cyclopropyl-3-(2,6-dichlorophenyl)isoxazol-4-yl)methoxy)-2-(trifluoromethyl)pyridin-3-yl)(methyl)amino]methyl}benzoic acid], the concentration giving a half-maximal response (EC50) in assay [1] (read-out: FRET assay EC50 (±sd); GST-tagged FXR-LBD, biotinylated SRC-1 peptide 676-700) was found to be 8.4 nM; in assay [2], 56 nM; on full length human FXR (read-out: DR assay EC50 (±sd), 16 hours incubation, firefly luciferase), 6.4 nM.
Take `CC(C)c1onc(-c2c(Cl)cccc2Cl)c1COc1ccc(N(C)Cc2ccc(C(=O)O)cc2)c(C(F)(F)F)n1` [Compound B, 4-(((6-((3-(2,6-Dichlorophenyl)-5-isopropylisoxazol-4-yl)methoxy)-2-(trifluoromethyl)pyridin-3-yl)(methyl)amino)methyl)benzoic acid, reference compound]: the figures for the EC50 (in assay [1] (setting [3]); in assay [2]; at full length human FXR (setting [4])) were 17 nM, 95 nM and 13 nM, respectively.
